Source: patent US20180344854A1, “SUPERSATURATED COMPOSITIONS OF BENZIMIDAZOLE COMPOUNDS” (Faes Farma, S.A., priority 2015, published 2018)
Values after ≈ are worked out from the molar mass of the structure shown.

How the values were obtained:
Format in all cases: physicochemical
[1] = Solubility of cocrystals in water at room temperature, HPLC area; details: for Solubility (HPLC area of bilastine), run _1 / Solubility (HPLC area of bilastine), run _2 / solubility on dissolution of cocrystal in water: water; for Solubility (HPLC area of bilastine), run _1 / Solubility (HPLC area of bilastine), run _2: rt; for pH_1 / pH_2: pH of the solution; for solubility on dissolution of cocrystal in water: room temperature, 400 mg in 24 ml
Procedure: 25 μL sample were injected.
Solubility of cocrystals was determined by stirring the product in water at room temperature (400 mg of product in 24 ml of water, 60 vol.). The product was previously milled in order to reduce the crystal size effect. A sample is collected and filtered using a sintered funnel (n° 3) periodically (30, 60, 180 min and after overnight). The filtered solid was immediately analyzed by XRPD, while the mother liquors are filtered through a 0.22 um filter. […] The concentration of Bilastine is determined by HPLC area (in some experiments where a high solubility was detected the mother liquor was diluted by a factor 10). This concentration is compared with the bilastine concentration obtained in the same conditions in order to determine a relative solubility.

[2] = Aqueous solubility of bilastine in the pH range 5-8; details: water, aqueous buffer
Procedure: The above benzimidazole compounds with selective H1 antihistaminic activity present low solubility in water, which impedes the development of pharmaceutically acceptable means of administering said compounds in liquid form. For example, the solubility of bilastine in the pH range 5-8 is around 500 μg/mL.

[3] = Solubility of bilastine after heating the slurry with acid at 95° C. and cooling (Method 2), HPLC-PDA; details: for solubility after 24 h: pH 4.3, after 24 h; for solubility at 2 h: aqueous buffer, thermodynamic from solid, pH 4.3, 95° C. 2 h, filtrate stood overnight at room temperature
Procedure: Alternative Method for Determining the Solubility
HPLC-PDA analysis was carried out using a Acquity BEH C18 1.7 μm 100×2.1 mm column at a temperature of 40° C. The isocratic mobile phase was composed of acetonitrile/methanol/ammonium bicarbonate 10 mM pH 8.7 (20.2/24.8/55.0%) (% v/v), at a flow rate of 0.6 mL/min. Samples were centrifuged 10 minutes at 4000 rpm at 20° C., and supernatant diluted to approx. 20-40 μg/mL in water. These diluted samples were kept at 18° C. until analysis. Quantization was performed at 220 nm by area comparison against a calibration curve obtained with bilastine working standard.
Method 2. A slurry of bilastine (100 mg) and the organic carboxylic acid (amount needed to obtain a pH of 4.0-4.5) in water (10 ml) was prepared. The mixture was stirred at 95° C. for 2 h and filtered. The filtrate was cooled to room temperature and allowed to stand overnight.
Citric acid was added to a slurry of 100 mg of bilastine in 10 mL of water to get a pH of 4.3 and the mixture was heated at 95° C. for 2 h. Then the solid was filtered off and the filtrate was allowed to stand overnight at room temperature. The solid was separated by centrifugation and the concentration of bilastine was determined by HPLC-PDA.
D,L-Tartaric acid was added to a slurry of 100 mg of bilastine in 10 mL of water to get a pH of 4.3 and the mixture was heated at 95° C. for 2 h. Then the solid was filtered off and the filtrate was allowed to stand overnight at room temperature. The solid was separated by centrifugation and the concentration of bilastine was determined by HPLC-PDA.
Hydrochloric acid 3.7% v/v was added to a slurry of 100 mg of bilastine in 10 mL of water to get a pH of 4.3 and the mixture was heated at 95° C. for 2 h. Then the solid was filtered off and the filtrate was allowed to stand overnight at room temperature. The solid was separated by centrifugation and the concentration of bilastine was determined by HPLC-PDA.

SMILES	Solubility (HPLC area of bilastine), run _1 ([1]; 0 min) [area counts]	Solubility (HPLC area of bilastine), run _2 ([1]; 0 min) [area counts]	Solubility (HPLC area of bilastine), run _1 ([1]; 30 min) [area counts]	Solubility (HPLC area of bilastine), run _2 ([1]; 30 min) [area counts]	Solubility (HPLC area of bilastine), run _1 ([1]; 60 min) [area counts]	Solubility (HPLC area of bilastine), run _2 ([1]; 60 min) [area counts]	Solubility (HPLC area of bilastine), run _1 ([1]; 180 min) [area counts]	Solubility (HPLC area of bilastine), run _2 ([1]; 180 min) [area counts]	Solubility (HPLC area of bilastine), run _1 ([1]; 1080 min) [area counts]	Solubility (HPLC area of bilastine), run _2 ([1]; 1080 min) [area counts]	pH_1 ([1]; run 1, 30 min)	pH_1 ([1]; run 1, 60 min)	pH_1 ([1]; run 1, 180 min)	pH_1 ([1]; run 1, 1080 min)	pH_2 ([1]; run 2, 30 min)	pH_2 ([1]; run 2, 60 min)	pH_2 ([1]; run 2, 180 min)	pH_2 ([1]; run 2, 1080 min)	solubility on dissolution of cocrystal in water [1]	also measured
CCOCCn1c(C2CCN(CCc3ccc(C(C)(C)C(=O)O)cc3)CC2)nc2ccccc21.O=C(O)CCCC(=O)O [GL(V)]	0	0	61517	62303	60930	60916	60628	61316	59755	60769	4.00	3.99	3.93	3.95	3.97	3.95	3.94	3.97	60000 area counts	–
CCOCCn1c(C2CCN(CCc3ccc(C(C)(C)C(=O)O)cc3)CC2)nc2ccccc21 [bilastine, 2-[4-(2-{4-[1-(2-Ethoxyethyl)-1H-benzimidazol-2-yl]-1-piperidinyl}ethyl)phenyl]-2-methylpropanoic acid]	–	–	–	–	–	–	–	–	–	–	–	–	–	–	–	–	–	–	–	solubility [2]: ~0.5 mg/mL (≈ 1.08 mM); solubility after 24 h ([3]; citric acid): maintained; concentration of bilastine ([3]; hydrochloric acid (comparative), pH 4.3, compared with the pH-dependent solubility of FIG. 1): in accordance with its pH-dependent solubility; solubility after 24 h ([3]; tartaric acid): maintained; solubility at 2 h ([3]; water acidified with D,L-tartaric acid, D,L-tartaric acid): 2.7 mg/mL (≈ 5.82 mM); solubility at 2 h ([3]; water acidified with citric acid, citric acid): 2.7 mg/mL (≈ 5.82 mM)
CCOCCn1c(C2CCN(CCc3ccc(C(C)(C)C(=O)O)cc3)CC2)nc2ccccc21.CCOCCn1c(C2CCN(CCc3ccc(C(C)(C)C(=O)O)cc3)CC2)nc2ccccc21.O=C(O)CCCC(=O)O [GL(I)]	0	0	49106	48462	48363	48871	50828	50771	48315	47972	4.42	4.31	4.08	4.11	4.34	4.3	4.29	3.97	48000 area counts	–
CCOCCn1c(C2CCN(CCc3ccc(C(C)(C)C(=O)O)cc3)CC2)nc2ccccc21.CCOCCn1c(C2CCN(CCc3ccc(C(C)(C)C(=O)O)cc3)CC2)nc2ccccc21.O=C(O)CCCC(=O)O [GL(IV)]	0	0	61110	61019	61558	61328	60841	62159	48734	55535	4.25	4.22	4.06	4.00	4.25	4.22	4.11	3.98	around 60000 area counts	–
